Results reported in patent publication US20210299156A1 (priority 2020, published 2021).
Read-outs that look alike come from different tables or passages of the source.

What was measured:
[1] = test system: SARS-CoV-2; type: cell-based; conditions: EPIAIRWAY tissue pretreated with 2.5, 25, 250 μM; MOI 0.1
[2] = test system: SARS-CoV-2; type: cell-based; conditions: EPINASAL tissue pretreated with 2.5, 25, 250 μM; MOI 0.1
[3] = test system: SARS-CoV-2; type: in vivo, K18-hACE2 mice; conditions: 12 mg/kg per day intraperitoneal osmotic pump; 7 days after virus challenge
[4] = test system: SARS-CoV-2; type: cell-based; conditions: MOI 0.1
[5] = test system: SARS-CoV-2; type: cell-based; conditions: for EC50: MOI 0.1
[6] = test system: SARS-CoV-2; set-up: species or system K18-hACE2 mice; conditions: mouse, in vivo
[7] = test system: SARS-CoV-2; conditions: VERO E6 cells
[8] = test system: EPIAIRWAY™ tissue
[9] = target: plasma membrane nucleolin (Homo sapiens, UniProt P19338); set-up: key: 1: Indicates a good plasma membrane nucleolin-binding GRO.; 2: Indicates a nucleolin control (non-plasma membrane nucleolin binding); conditions: cited from earlier work
[10] = PEP: drug 4 hours after virus challenge
[11] = PrEP: drug 4 hours before virus challenge

Sequence of plasma membrane nucleolin (P19338 whole entry): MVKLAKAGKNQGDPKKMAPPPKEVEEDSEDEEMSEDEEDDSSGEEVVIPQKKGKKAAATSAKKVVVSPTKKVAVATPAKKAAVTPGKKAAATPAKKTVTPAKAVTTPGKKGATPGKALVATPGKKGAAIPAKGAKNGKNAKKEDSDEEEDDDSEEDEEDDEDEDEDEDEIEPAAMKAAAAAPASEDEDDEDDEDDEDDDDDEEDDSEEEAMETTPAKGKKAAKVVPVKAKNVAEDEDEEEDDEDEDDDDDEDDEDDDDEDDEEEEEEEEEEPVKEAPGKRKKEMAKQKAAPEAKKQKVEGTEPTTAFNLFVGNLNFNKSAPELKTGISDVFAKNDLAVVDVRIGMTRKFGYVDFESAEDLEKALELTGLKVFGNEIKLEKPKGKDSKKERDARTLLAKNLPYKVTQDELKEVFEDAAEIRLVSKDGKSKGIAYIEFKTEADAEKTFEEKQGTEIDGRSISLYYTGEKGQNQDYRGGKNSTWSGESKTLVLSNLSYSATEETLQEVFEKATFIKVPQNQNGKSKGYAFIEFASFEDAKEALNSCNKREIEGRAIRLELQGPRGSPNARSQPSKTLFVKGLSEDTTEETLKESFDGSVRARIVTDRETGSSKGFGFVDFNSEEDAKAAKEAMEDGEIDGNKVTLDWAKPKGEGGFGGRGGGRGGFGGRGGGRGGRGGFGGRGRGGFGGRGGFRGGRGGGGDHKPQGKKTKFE

Q: Which results are given for “AS1411: GRO nucleolin-binding DNA aptamer, SEQ ID NO:10, ggtggtggtg gttgtggtgg tggtgg”?
A: reduction in viral titer [1]: ≤ 5 logs fold; reduction in viral titer [2]: ≤ 3.5 logs fold; survival rate [3]: 100%; EC50 [4, 10]: 1500 nM; EC90 [4, 10]: 3200 nM; EC50 [4, 11]: 986 nM; EC90 [4, 11]: 2160 nM; protective effect compared to the vehicle group ([5]; 2.5 μM and 20 μM, EPIAIRWAY tissue, FIG. 29): reduction of virus; EC50 ([5]; 72 Hours Post-Infection, EPIAIRWAY tissue): 942 nM; EC50 ([5]; 96 Hours Post-Infection, EPIAIRWAY tissue): 1410 nM; EC50 ([5]; 120 Hours Post-Infection, EPIAIRWAY tissue): 650 nM; interference between AS1411 and remdesivir in combination ([5]; EPIAIRWAY tissue TCID50/ml, FIG. 27): do not interfere with each other; interference between AS1411 and dexamethasone in combination ([5]; EPIAIRWAY tissue TCID50/ml, FIG. 28): do not interfere with each other; inhibiting the virus (TCID50/ml) [6]: effective for inhibiting the virus in the nasal passage and kidneys of the mice, although not as effectively as in the lungs; inhibiting the virus in the brain (TCID50/ml) [6]: not effective for inhibiting the virus in the brain; inhibiting the virus in the lungs (TCID50/ml) [6]: effective for inhibiting the virus in the lungs; concentration at which inhibition of SARS-CoV-2 virus-induced syncytium formation begins ([7]; MOI 0.01, 72 hours): ≥ 0.625 µM; dose at which cytopathic effects of SARS-CoV-2 are markedly reduced ([7]; MOI 0.01, 72 hours): ≥ 0.625 µM; cytotoxicity ([7]; from 0.625 μM): without cytotoxicity; toxicity in EPIAIRWAY model [8]: not toxic; plasma membrane nucleolin binding (footnote designation) [9]: GRO26B^1
